In article PMC11054303, “Design and Synthesis of Novel N-Benzylidene Derivatives of 3-Amino-4-imino-3,5-dihydro-4H-chromeno[2,3-d]pyrimidine under Microwave, In Silico ADME Predictions, In Vitro Antitumoral Activities and In Vivo Toxicity” (Pharmaceuticals, 2024):

Experiments:
MDA MB231 = experiment: Antiproliferative assay, MDA MB231; type: cell-based, human; details: for IC50: Homo sapiens, MDA-MB-231, 48 h incubation, average of three assays, standard error ± 0.5 μM
Protocol: (§1) The potential antiproliferative activity of these novel 3-(N-phenylmethyliden)amino-4-imino-3,5-dihydro-4H-chromeno[2,3-d]pyrimidine 10(a-i) and 10-(N-phenylmethyliden)amino-11-imino-11H-naphto[1′,2′:5,6]pyrano[2,3-d]pyrimidine 10(j-l) was evaluated in a panel of eight tumoral cell lines and in diploid skin fibroblasts used as normal cell lines for control. For these antitumor assays, chosen cell lines represent diverse types of human cancer, which are, respectively, human hepatocellular carcinoma (Huh7 D12), human colon adenocarcinoma (Caco2), human breast adenocarcinoma (MDA-MB231), MDA-MB468 for human breast carcinoma which correspond to the Triple Negative Breast Cancer (TNBC), human colon carcinoma (HCT116), PC3 as cell line initiated from bone metastasis of grade IV prostatic adenocarcinoma from a person, MCF7 as breast cancer line isolated from a person and PANC1, as human pancreatic cancer cell line. The potential antiproliferative activity was preliminarily evaluated in vitro at a 25 μM single dose.
(§2) The IC50 was calculated from the full dose-response curve and used as a parameter for the antiproliferative activity of the new compounds.
(§3) Skin diploid fibroblastic cells were provided by BIOPREDIC International Company (Rennes, France). Huh-7D12 (Ref ECACC: 01042712), Caco2 (Ref ECACC: 86010202), MDA-MB-231 (Ref ECACC: 92020424), MDA-MB-468, HCT-116 (Ref ECACC: 91091005), PC3 (Ref ECACC: 90112714), and MCF7 cell lines were obtained from the ECACC collection. PANC1 cell lines, a generous gift of LBAI Inserm 1227 (Brest, France). Cells were grown according to ECACC recommendations in DMEM for Huh-D12, MDA-MB-231, MDA-MB-468 and fibroblast, in EMEM for Caco2, in McCoy’s for HCT-116 and RPMI for PC3 at 37 °C and 5% CO2. All culture media with 10% of FBS, 1% of penicillin-streptomycin and 2 mM glutamine.
(§4) Chemicals were solubilized in DMSO at a concentration of 10 mM (stock solution) and diluted in a culture medium to the desired final concentrations. […] The toxicity test of the chemicals on these cells was as follows: 2 × 10^3 cells for HCT-116 cells or 4 × 10^3 for the other cells were seeded in 96-multi-well plates in triplicate and left for 24 h for attachment, spreading and growing. Then, cells were exposed for 48 h to increasing concentrations of chemicals, ranging from 0.1 μM to 25 μM, in a final volume of 120 μL of culture medium. After 48 h of treatment, cells were washed in PBS and fixed in a cooled 90% ethanol/5% acetic acid solution for 20 min. The nuclei were stained with Hoechst 3342 (B2261 Merck Sigma-Aldrich) and counted. Image acquisition and analysis were performed using automated imaging analysis with a Cellomics Arrayscan VTI/HCS Reader (Thermo/Scientific, Waltham, MA, USA). The survival percentages were calculated as the percentage of cell number after chemical treatment over cell number after DMSO treatment. The IC50 was graphically determined.

MDA MB468 = experiment: Antiproliferative assay, MDA MB468; type: cell-based, human; details: for IC50: Homo sapiens, MDA-MB-468, 48 h incubation, average of three assays, standard error ± 0.5 μM
Protocol: as §1, §2, §3, §4

Huh7 D12 = experiment: Antiproliferative assay, Huh7 D12; type: cell-based, human; details: for IC50: Homo sapiens, Huh-7D12, 48 h incubation, average of three assays, standard error ± 0.5 μM
Protocol: as §1, §2, §3, §4

tumor cell lines = experiment: Antiproliferative assay, panel of tumoral cell lines; type: cell-based; details: Homo sapiens, 48 h, summary over tumoral cell lines of Table 3, 48 h; read-out: IC50 on tumor cell lines (span over the panel)
Protocol: as §1, §2, §3, §4

PANC1 = experiment: Antiproliferative assay, PANC1; type: cell-based, human; details: Homo sapiens, PANC-1; 48 h incubation; average of three assays, standard error ± 0.5 μM
Protocol: as §1, §2, §3, §4

Caco2 = experiment: Antiproliferative assay, Caco2; type: cell-based, human; details: Homo sapiens, Caco-2; 48 h incubation; average of three assays, standard error ± 0.5 μM
Protocol: as §1, §2, §3, §4

Fibroblasts = experiment: Antiproliferative assay, diploid skin fibroblasts (normal cells); type: cell-based; details: Fibroblast; 48 h incubation; average of three assays, standard error ± 0.5 μM
Protocol: as §1, §2, §3, §4

PC3 = experiment: Antiproliferative assay, PC3; type: cell-based, human; details: for IC50: Homo sapiens, PC-3, 48 h incubation, average of three assays, standard error ± 0.5 μM
Protocol: as §1, §2, §3, §4

HCT 116 = experiment: Antiproliferative assay, HCT 116; type: cell-based, human; details: for IC50: Homo sapiens, HCT-116, 48 h incubation, average of three assays, standard error ± 0.5 μM; for Selectivity Index (SI) HCT 116: SI = IC50 fibroblasts/IC50 on HCT 116
Protocol: as §1, §2, §3, §4

MCF7 = experiment: Antiproliferative assay, MCF7; type: cell-based, human; details: for IC50: Homo sapiens, MCF7, 48 h incubation, average of three assays, standard error ± 0.5 μM
Protocol: as §1, §2, §3, §4

[1] = tested on: zebrafish Danio rerio embryos; experiment: Angiogenesis of vessels in mCherry transgenic zebrafish embryos; type: in vivo; details: 1.67 μM, 72 hpf
Description: Another interest of zebrafish Danio rerio is the possibility to deeply evaluate the effects of angiogenic compounds. In our model, the formation of most vessels is complete, the circulation is present, and the heart is beating after 28 hpf of development. Angiogenesis begins in the somites and in the anterior portion of the embryos. Many zebrafish blood vessels form by angiogenic sprouting and appear to require the same proteins required for blood vessel growth in mammals. By using the mCherry line transgenic zebrafish, it is possible to analyze the direct effect of a compound on the angiogenesis of dorsal vessels. Zebrafish embryos can survive up to a week without an intact circulatory system because defective vessel formation has no immediate lethal effect.
These experiments were performed in four technical replicates.

[2] = tested on: zebrafish Danio rerio embryos; experiment: Zebrafish embryo toxicity assay (Zebratox, FET); details: low doses
Protocol: (§5) Fertilized eggs at 24–48 h post-fertilization (hpf) were selected and transferred to a 96-well plate (1 embryo/well). […] DMSO (0.6%) was used as vehicle control for the test compounds. The exposure duration continued up to 72 hpf because it is the endpoint of embryonic development [41]. The dead embryos were eliminated, and the fertilized eggs were imaged at 0, 24, 48 and 72 hpf.
(§6) Eggs were collected 2 h post-fertilization (hpf) and kept in glass Petri dishes containing water for subsequent examination under a binocular microscope to confirm fertilization. […] Chemical treatments were performed by adding DMSO alone (negative control), or test molecule. These experiments were performed in four technical replicates.
(§7) The experiments were performed using a Zeiss inverted fluorescent microscope (Observer Z1). The zebrafish toxicological test (Zebratox) was realized as follows: the 24 h post-fertilization embryos were arrayed by hand with one embryo per well in black-walled 96-well microplates for fluorescence assays (Perkin Elmer, Waltham, MA, USA). The embryos were treated before hatching from 0 to 72 h post-fertilization. The 20 mM DMSO stock chemicals were diluted in fish water and added to the wells at final concentrations from 0.0 2µM to 5 μM. The negative control (0.25% DMSO) was added to each replicate plate. The experiments were realized in triplicate in three independent plates. […] The zebrafish fertilized eggs were provided by the ImPACcell-Biosit Zebrafish facilities (Rennes, France).

[3] = tested on: zebrafish Danio rerio embryos; details: transgenic line Tg(kdrl:Hsa.HRAS-mCherry)s896, zebrafish (Danio rerio), in vivo, 72 hpf, 1.67 μM
Protocol: as §5, §6, §7

[4] = Antiproliferative assay, Caco2; type: cell-based, human; details: human, Caco-2; SI = IC50 fibroblasts/IC50 on Caco2; read-out: Selectivity Index (SI) Caco2
Protocol: as §1, §2, §3, §4

T47D breast cancer cells = tested on: T47D breast cancer cells; set-up: method as in PMID 15542776; details: cited from earlier work

Row | Compound | IC50 (MDA MB231) | IC50 (MDA MB468) | IC50 (Huh7 D12) | IC50 (tumor cell lines) | IC50 (Caco2) | IC50 (Fibroblasts) | IC50 (PC3) | melting point | IC50 (HCT 116) | Selectivity Index (SI) HCT 116 (HCT 116) | IC50 (MCF7) | other results
1 | N=c1c2c(ncn1/N=C/c1ccccc1)Oc1ccccc1C2 [10f, (3E) 3-N-(Phenylmethylidene)amino-4-imino-3,5-dihydro-4H-chromeno[2,3-d]pyrimidine] | > 25 µM | > 25 µM | > 25 µM | > 25 µM | > 25 µM | > 25 µM | > 25 µM | 232 to 234 °C | 10 µM | > 2.5 | > 25 µM | IC50 (PANC1): > 25 µM
2 | CNC(=O)c1cc(Oc2ccc(NC(=O)Nc3ccc(Cl)c(C(F)(F)F)c3)cc2)ccn1 [sorafenib, reference compound] |  |  |  |  |  |  |  |  |  |  |  | effect on angiogenesis of the vessels [1]: absence of angiogenesis of the vessels; effect on angiogenesis of the vessels ([1]; listed as Sorafenib): inhibition of the dorsal vessel vascularization; development of the embryos ([2]; 24 hpf): normal development; morphological development of the embryos ([2]; 48 hpf): morphological development is delayed; toxicity, fraction of the embryos [3]: 4/5
3 | N=c1c2c(ncn1/N=C/c1ccccc1)Oc1ccc3ccccc3c1C2 [10l, (10E) 10-N-(Phenylmethylidene)amino-11-imino-11H-naphto[1′,2′:5,6]pyrano[2,3-d]pyrimidine] | > 25 µM | > 25 µM | > 25 µM | > 25 µM | > 25 µM | > 25 µM | > 25 µM | ≥ 260 °C | > 25 µM |  | > 25 µM | 
4 | COc1cccc2c1Oc1ncn(/N=C/c3ccccc3)c(=N)c1C2 [10i, (3E) 3-N-(Phenylmethylidene)amino-4-imino-9-methoxy-3,5-dihydro-4H-chromeno[2,3-d]pyrimidine] | 0.6 µM | 0.3 µM | 0.49 µM |  | 0.8 µM | > 25 µM | 0.77 µM | 252 to 254 °C | 0.62 µM | > 40.3 | 0.45 µM | Selectivity Index (SI) MDA MB231 (MDA MB231; SI = IC50 fibroblasts/IC50 on MDA MB231): > 41.7; Selectivity Index (SI) MDA MB468 (MDA MB468; SI = IC50 fibroblasts/IC50 on MDA MB468): > 83.3; Selectivity Index (SI) Huh7 D12 (Huh7 D12; SI = IC50 fibroblasts/IC50 on Huh7 D12): > 51.0; selectivity ratio at 48 h [4]: > 31.3; Selectivity Index (SI) PC3 (PC3; SI = IC50 fibroblasts/IC50 on PC3): > 32.5; Selectivity Index (SI) MCF7 (MCF7; SI = IC50 fibroblasts/IC50 on MCF7): > 55.6
5 | 2-amino-4-(3-bromo-4,5-dimethoxyphenyl)-4H-chromene-3-carbonitrile [MX 58151] |  |  |  |  |  |  |  |  |  |  |  | GI50 (T47D breast cancer cells): 0.037 µM
